We go through 1 compound from US6767900B2, “Phosphonate nucleotide compound” (Mitsubishi Pharma Corporation, priority 2000, dated 2004).

The subject of one series is Hepatitis B Virus (HBV). The series can be described thus: Inhibitory effect against growth of hepatitis B virus (HBV-DNA synthesis in HB611 cells, Southern blotting). Format: cell-based. Particulars: read-out: 50% inhibition concentration against HBV-DNA synthesis; HB611 cells (recombinant human hepatoma cells producing HBV); test compound 0.005 to 100 μM from day 8; DNA collected day 17.

For a further series, the system named is HB611 cells. The series can be described thus: Cytotoxicity to HB611 cells. Type of series: cell-based, human. The procedure:
The inhibitory effect of the compound of the present invention against the growth of an HBV was measured by a known method (K. Ueda, et al., Virology, 169, 213-216 (1989)). 2×10^4 of HB611 cells (recombinant human hepatoma cells producing HBV) were cultured at 37° C. in Dulbecco ME medium containing 10% fetal bovine serum, streptomycin (100 μg/ml), penicillin (100IU/ml) and Genetisin (trade name, antibiotic by LifeTechnologies) (0.2 mg/ml). At the second day and the fifth day of culturing, the medium was replaced by a fresh medium, and then at the eighth day, the eleventh day and the fourteenth day of culturing, the medium was replaced with a medium containing 0.005 to 100 μM (final concentration) of the test compound, and at the seventeenth day of culturing, DNA of the cells were collected. […] Moreover, a concentration of the compounds required to kill 50% of HB611 cells was determined.
Each compound number in the table corresponds to the compound number in Table 1. For reference, the results of the evaluation of the compounds described in EP785208 are also shown.

For the compound `Nc1nc(Sc2ccc(O)cc2)c2ncn(CCOCP(=O)(OCC(F)(F)F)OCC(F)(F)F)c2n1` [Compound No. 3, 2-amino-9-[2-(phosphonomethoxy)ethyl]-6-(4-hydroxyphenylthio)purine bis(2,2,2-trifluoroethyl) ester], the IC50 with Hepatitis B Virus (HBV) was determined as 0.05 µM. Also, the “Cytotoxic concentration required to kill 50% of HB611 cells” value in the series with HB611 cells is recorded as >1,000 μM.
